We go through three compounds from US20230310445A1, “LOX ENZYME INHIBITING METHODS AND COMPOSITIONS” (ANOVIA BIOSCIENCES, INC., priority 2020, published 2023).

Some results are limits rather than exact numbers.

Common to all, as to type: biochemical
Assay [1] deals with T1, Recombinant human LOXL2 (lysyl oxidase like 2) (Homo sapiens, UniProt Q9Y4K0).
T1 construct: purchased R&D systems
T1 sequence (Q9Y4K0 26-774): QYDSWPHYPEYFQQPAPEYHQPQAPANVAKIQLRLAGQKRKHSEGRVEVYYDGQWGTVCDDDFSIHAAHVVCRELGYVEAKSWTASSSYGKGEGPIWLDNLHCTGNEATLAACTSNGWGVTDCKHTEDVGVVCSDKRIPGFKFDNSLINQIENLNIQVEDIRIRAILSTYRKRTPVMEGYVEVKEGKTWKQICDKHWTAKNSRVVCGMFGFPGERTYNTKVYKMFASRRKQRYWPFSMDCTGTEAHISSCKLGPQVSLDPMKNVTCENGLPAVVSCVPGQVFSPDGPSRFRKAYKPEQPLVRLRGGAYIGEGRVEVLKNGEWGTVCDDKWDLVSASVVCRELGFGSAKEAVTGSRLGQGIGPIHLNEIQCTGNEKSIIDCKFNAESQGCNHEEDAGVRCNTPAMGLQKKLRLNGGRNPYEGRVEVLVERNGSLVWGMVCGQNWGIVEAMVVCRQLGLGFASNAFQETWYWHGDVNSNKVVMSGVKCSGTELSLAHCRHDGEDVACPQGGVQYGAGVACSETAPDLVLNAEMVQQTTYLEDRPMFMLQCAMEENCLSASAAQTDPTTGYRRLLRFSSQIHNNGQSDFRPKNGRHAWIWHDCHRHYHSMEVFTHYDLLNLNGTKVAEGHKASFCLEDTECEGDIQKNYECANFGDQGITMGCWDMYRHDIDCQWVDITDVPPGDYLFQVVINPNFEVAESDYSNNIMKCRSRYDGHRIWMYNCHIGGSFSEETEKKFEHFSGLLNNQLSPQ
Nature of the assay: LOXL2 inhibition assay (fluorometric, cadaverine/Amplex Red/HRP). To be noted: IC50 class; recombinant human LOXL2, cadaverine substrate; read-out: Activity Range LOXL2. The procedure, abridged: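 Both enzymes assayed in 1.2 M urea, 50 mM sodium borate pH 8.0, 10 mM CaCl, with 30 min compound–enzyme preincubation at 37° C before cadaverine/Amplex Red/HRP addition. Fluorescence followed 60 min at 37° C; linear-slope rates, background-subtracted, as % of DMSO control, fitted by 4-parameter variable-slope curve (bottom fixed at 0).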

Assay [2] addresses T2, Recombinant human LOXL3 (lysyl oxidase like 3) (Homo sapiens, UniProt P58215).
T2 construct: purchased R&D systems
T2 sequence (P58215 26-753): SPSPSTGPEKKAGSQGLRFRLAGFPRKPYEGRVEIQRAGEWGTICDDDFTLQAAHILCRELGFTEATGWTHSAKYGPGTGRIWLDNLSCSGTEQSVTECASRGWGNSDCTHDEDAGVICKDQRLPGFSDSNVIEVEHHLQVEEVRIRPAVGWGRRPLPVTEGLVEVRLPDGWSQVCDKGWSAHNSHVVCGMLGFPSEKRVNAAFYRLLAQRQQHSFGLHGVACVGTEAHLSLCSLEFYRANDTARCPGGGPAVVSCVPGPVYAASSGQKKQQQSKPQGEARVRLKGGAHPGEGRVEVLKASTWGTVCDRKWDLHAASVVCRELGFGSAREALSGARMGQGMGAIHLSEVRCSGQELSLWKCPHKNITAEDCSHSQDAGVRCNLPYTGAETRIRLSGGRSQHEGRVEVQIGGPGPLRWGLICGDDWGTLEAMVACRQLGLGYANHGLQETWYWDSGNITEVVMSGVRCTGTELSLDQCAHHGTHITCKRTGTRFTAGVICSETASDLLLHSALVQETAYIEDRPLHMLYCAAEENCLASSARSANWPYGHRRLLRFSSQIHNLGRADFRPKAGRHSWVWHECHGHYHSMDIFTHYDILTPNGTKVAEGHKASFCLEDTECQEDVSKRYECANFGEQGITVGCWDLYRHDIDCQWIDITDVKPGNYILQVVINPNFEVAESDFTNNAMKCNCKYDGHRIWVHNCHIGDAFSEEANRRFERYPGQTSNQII
Briefly: LOXL3 inhibition assay (fluorometric, cadaverine/Amplex Red/HRP). Particulars: IC50 class; recombinant human LOXL3, cadaverine substrate; read-out: Activity Range LOXL3. The procedure: The ability of compounds to inhibit one or more of the lysyl oxidases LOXL2 and/or LOXL3 was determined using a fluorometric assay. This assay measures the activity of lysyl oxidases by coupling the reaction with horseradish peroxidase-catalyzed […]. The activity assay protocol uses cadaverine as substrate that releases hydrogen peroxide upon transformation by the specific LOX family enzyme present in the sample. Hydrogen peroxide is in turn detected using a red fluorescence substrate for HRP-coupled reactions (Amplex Red Enzyme Assays, Thermo Scientific Fisher). This leads to increase in fluorescence that can be easily detected at Ex/Em=540/590 nm in a fluorescence microplate reader.
Enzymes: Recombinant human LOXL2 (lysyl oxidase like 2) and recombinant human LOXL3 (lysyl oxidase like 3) were purchased from R&D systems and assays were performed in 1.2 M urea, 50 mM sodium borate buffer pH 8.0, and 10 mM CaCl.
Reaction: Final concentration in the LOXL2 and LOXL3 assays were as following and performed in a total volume of […]:
Experimental procedure: 5 μl of freshly prepared reaction buffer were delivered to reaction wells. Compounds were resuspended in 100% DMSO at 10 mM and delivered into buffer using acoustic technology (Echo550; nanoliter range). A 3× solution of LOXL2 or LOXL3 in reaction buffer was prepared (“enzyme solution”) and 5 μL of enzyme solution was added into the reaction wells. Buffer only was added to column 1 for no protein control. Reactions were incubated for 30 minutes at 37° C. A 3×mixture of cadaverine, Amplex Red, and HRP (“Substrate/Detection Mix) was prepared and subsequently 5 μL of the mixture added to each reaction well. Progress of reactions was monitored for 60 minutes at 37° C. using Clariostar plate reader (ex 530-12, ems 600-40). For all activity assays, pan-LOX inhibitor CCT365623 (Tang et al, 2017) and LOXL2/LOXL3 inhibitor PAT-1251 (PharmaKea) were included as standards.
Data analysis: Slope of the linear portion of the progress curve was calculated using Clariostar software. Typical analysis interval was between 8-30 min, but varied between experiments. The background subtracted signals (No protein wells are considered as background) were converted to % activity relative to DMSO controls. Data was analyzed using GraphPad Prism 4 with “sigmoidal dose-response (variable slope)”; 4 parameters with Hill Slope. Constraints: Bottom=Constant equal to 0. Top=Must be less than 120.

Assay [3] concerns the target T3, Bovine lysyl oxidase (LOX) (Bos taurus, UniProt P33072).
T3 construct: from tissue; host or cells: adult bovine tendon
T3 sequence (P33072 170-418): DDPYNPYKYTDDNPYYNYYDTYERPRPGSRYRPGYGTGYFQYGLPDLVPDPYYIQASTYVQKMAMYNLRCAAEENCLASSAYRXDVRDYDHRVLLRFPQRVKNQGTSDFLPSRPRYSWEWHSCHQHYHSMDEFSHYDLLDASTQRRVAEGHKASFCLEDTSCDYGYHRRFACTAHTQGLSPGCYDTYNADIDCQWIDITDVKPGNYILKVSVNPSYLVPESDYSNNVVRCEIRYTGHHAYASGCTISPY
Nature of the assay: LOX inhibition assay (fluorometric, cadaverine/Amplex Red/HRP). To be noted: IC50 class; bovine tendon LOX, cadaverine substrate; read-out: Activity Range LOX. In short, it runs like this: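 Bovine tendon-extracted LOX was preincubated 30 min at 37 °C with compound. Cadaverine/Amplex Red/HRP was then added and fluorescence (ex530/em600) monitored for 120 min at 37 °C. Progress-curve slopes, background-subtracted against no-protein wells, were normalised to DMSO controls and fitted with a four-parameter variable-slope dose-response model.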

Take `NCc1cccc(S(=O)(=O)N2C[C@H](C(=O)N3CCOCC3)C[C@@H](c3ccccc3)C2)n1` (racemic) [Example 114T, trans-(1-((6-(Aminomethyl)pyridin-2-yl)sulfonyl)-5-phenylpiperidin-3-yl)(morpholino)methanone 2,2,2-trifluoroacetate]: the IC50 in assay [1] was 1 to 30 µM; in assay [2], greater than 30 µM.
Regarding `NCc1cccc(S(=O)(=O)N2C[C@@H](C(=O)N3CCS(=O)(=O)CC3)C[C@@H](c3ccccc3)C2)n1` (racemic) [Example 115, cis-(1-((6-(Aminomethyl)pyridin-2-yl)sulfonyl)-5-phenylpiperidin-3-yl)(1,1-dioxidothiomorpholino)methanone 2,2,2-trifluoroacetate], the IC50 in assay [1] and in assay [2] was greater than 30 µM each time.
For the compound `NCc1ccc(S(=O)(=O)N2C[C@@H](C(=O)N3CCOCC3)C[C@@H](c3ccccc3)C2)s1` [Example 13A, ((3S,5S)-1-((5-(aminomethyl)thiophen-2-yl)sulfonyl)-5-phenylpiperidin-3-yl)(morpholino)methanone], the IC50 in assay [3] and in assay [1] was no more than 0.5 µM throughout.
